The values that follow come from US8859584B2, “TRPV1 antagonists” (AbbVie Inc., priority 2011, dated 2014).

Read-outs that look alike come from different tables or passages of the source.

In test [1] the target is T1, human TRPV1 (Homo sapiens, UniProt Q8NER1).
T1 construct: expressed in transfected cells
The test can be described thus: Capsaicin Activation Assay (FLIPR intracellular Ca2+, recombinant HEK293 cells). Format: cell-based. On the procedure:
(i) Capsaicin Activation Assay
Dulbecco's modified Eagle medium (DMEM) (with 4.5 mg/mL glucose) and fetal bovine serum were obtained from Hyclone Laboratories, Inc. (Logan, Utah). Dulbecco's phosphate-buffered saline (DPBS) (with 1 mg/mL glucose and 3.6 mg/l Na pyruvate, without phenol red), L-glutamine, hygromycin B, and Lipofectamine® were obtained from Life Technologies (Grand Island, N.Y.). G418 sulfate was obtained from Calbiochem-Novabiochem Corp. (San Diego, Calif.). Capsaicin (8-methyl-N-vanillyl-6-nonenamide) was obtained from Sigma-Aldrich, Co. (St. Louis, Mo.). Fluo-4 AM (N-[4-[6-[(acetyloxy)-methoxy]-2,7-difluoro-3-oxo-3H-xanthen-9-yl]-2-[2-[2-[bis[2-[(acetyloxy)methoxy]-2-oxyethyl]amino]-5-methylphenoxy]ethoxy]phenyl]-N-[2-[(acetyloxy)methoxy]-2-oxyethyl]-glycine, (acetyloxy)methyl ester) was purchased from Molecular Probes (Eugene, Oreg.).
(§1) Expression plasmids encoding the hTRPV1 cDNA were transfected into HEK293 cells using Lipofectamine®. Forty-eight hours after transfection, the neomycin-resistant cells were selected with growth medium containing 800 μg/mL Geneticin (Life Technologies, formerly Gibco BRL). Surviving individual colonies were isolated and screened for TRPV1 activity. Cells expressing recombinant TRPV1 were maintained at 37° C. in DMEM containing 4 mM L-glutamine, 300 μg/mL G418 (Calbiochem) and 10% fetal bovine serum under a humidified 5% CO2 atmosphere.
The functional activity of compounds at the TRPV1 receptor was determined by measurement of intracellular Ca^2+ levels ([Ca^2+]i) using the Fluorescence Imaging Plate Reader (FLIPR)TETRA®. All compounds were tested over a 12-point one-third-log concentration range. Compound stocks, 10 mM, were prepared in DMSO, and diluted serially across a 384-well plate using a Bravo BenchCel workstation (Agilent Technologies, Santa Clara, Calif.). A stock concentration of capsaicin (10 mM) was made in DMSO, and diluted in DPBS to a final concentration of 200 nM (4×). On the day prior to the experiment, the recombinant HEK293 cells expressing human TRPV1 (hTRPV1) were removed from tissue culture flasks and plated in growth medium into black-walled clear-bottom 384-well Biocoat™ poly-D-lysine assay plates (BD Biosciences, Bedford, Mass.) using a Multidrop® dispenser (ThermoScientific, Waltham, Mass.). […] The plated cells were incubated for 90-120 minutes in the dark at room temperature and then test compound was added to each well. Three minutes later, 200 nM capsaicin (4×) solution was added to each well in an amount sufficient to provide a final assay volume of 80 μL and capsaicin concentration of 50 nM. Fluorescence readings were made at 1 to 5 second intervals over the course of the experimental run. The peak increase in relative fluorescence units (minus baseline) was calculated, and expressed as a percentage of the 50 nM capsaicin (control) response.

Test [2] addresses T1, human TRPV1. The test can be described thus: Acid Activation Assay (pH 5.0, FLIPR intracellular Ca2+, recombinant HEK293 cells). In kind it is cell-based. To be noted: percentage of maximal pH 5.0-induced response remaining; HEK293 hTRPV1; max concentration 37.5 μM. On the procedure: (ii) Acid Activation Assay
Dulbecco's modified Eagle's medium (DMEM) with 4.5 mg/mL D-glucose, fetal bovine serum, L-glutamine, and 2-morpholinoethanesulfonic acid (MES) were purchased from Sigma-Aldrich Co. (St. Louis, Mo.). […] The FLIPR® Calcium 4 assay kit was purchased from Molecular Devices (Sunnyvale, Calif.).
as §1
The functional activity of compounds at the TRPV1 receptor was determined by measurement of intracellular Ca^2+ levels ([Ca^2+]i) using the Fluorescence Imaging Plate Reader (FLIPR)TETRA®. […] Compound stocks, 10 mM, were prepared in DMSO, and diluted serially across a 384-well plate using a Bravo BenchCel workstation (Agilent Technologies, Santa Clara, Calif.). On the day prior to the experiment, the recombinant HEK293 cells expressing human TRPV1 (hTRPV1) were removed from tissue culture flasks and plated in growth medium into black-walled clear-bottom 384-well Biocoat™ poly-D-lysine assay plates (BD Biosciences, Bedford, Mass.) using a Multidrop® dispenser (ThermoScientific, Waltham, Mass.). […] The plated cells were incubated for 90-120 min in the dark at 25° C. The test compounds dissolved in DMSO were then added to the plates using an Agilent Bravo workstation (Agilent Technologies Inc., Santa Clara, Calif.). Three minutes later, a pH 5.0 solution was added to each well. Reagents were delivered at a rate of 40 μL/sec, and the final assay volume was 80 μL. Acidic pH solutions were prepared by titration of DPBS/MES with 1 N HCl. The intensity of the fluorescence was captured and digitally transferred to an interfaced PC. The maximum peak measured for the concentration range tested was used to calculate the corresponding peak increase in fluorescence over baseline (relative fluorescence units) which was expressed as the percentage (max % remain) of the maximal pH 5.0-induced response.

Where [3] appears, read: recombinant HEK293 cells expressing hTRPV1, 50 nM capsaicin, read-out: human TRPV1 capsaicin IC50.

T1 sequence (Q8NER1 whole entry): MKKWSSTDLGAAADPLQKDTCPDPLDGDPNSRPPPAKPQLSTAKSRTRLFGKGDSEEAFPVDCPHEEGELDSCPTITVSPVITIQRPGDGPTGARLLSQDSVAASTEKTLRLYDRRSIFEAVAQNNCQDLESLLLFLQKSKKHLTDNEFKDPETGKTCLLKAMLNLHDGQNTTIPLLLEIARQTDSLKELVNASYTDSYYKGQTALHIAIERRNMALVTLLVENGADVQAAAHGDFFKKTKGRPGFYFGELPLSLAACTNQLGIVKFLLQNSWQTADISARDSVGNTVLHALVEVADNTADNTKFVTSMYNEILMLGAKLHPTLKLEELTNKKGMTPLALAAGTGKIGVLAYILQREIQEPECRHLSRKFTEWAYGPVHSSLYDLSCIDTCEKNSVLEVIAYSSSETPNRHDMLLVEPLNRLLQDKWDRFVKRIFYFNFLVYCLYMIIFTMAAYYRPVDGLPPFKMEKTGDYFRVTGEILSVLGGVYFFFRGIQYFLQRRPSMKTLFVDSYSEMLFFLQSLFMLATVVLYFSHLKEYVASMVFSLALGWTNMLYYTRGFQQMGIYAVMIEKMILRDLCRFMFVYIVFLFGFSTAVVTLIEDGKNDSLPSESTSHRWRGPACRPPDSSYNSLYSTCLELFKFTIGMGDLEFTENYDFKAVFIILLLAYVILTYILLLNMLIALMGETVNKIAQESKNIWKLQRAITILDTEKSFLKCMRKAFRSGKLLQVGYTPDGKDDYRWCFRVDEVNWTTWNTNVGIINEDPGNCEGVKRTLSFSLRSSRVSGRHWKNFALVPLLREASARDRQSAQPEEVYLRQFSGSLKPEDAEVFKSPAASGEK

What is called IC50 is the concentration needed to halve the response being measured. For the compound `O=C(Nc1cccc2c1C[C@@H](O)C2)N[C@@H]1CC(CF)(CF)Oc2c(F)cc(F)cc21` [Example 79, 1-[(4R)-6,8-difluoro-2,2-bis(fluoromethyl)-3,4-dihydro-2H-chromen-4-yl]-3-[(2S)-2-hydroxy-2,3-dihydro-1H-inden-4-yl]urea], the half-maximal inhibitory concentration (IC50) on human TRPV1 [1] (setting [3]) was 710 nM. For the same compound, on human TRPV1 [2], the “human TRPV1 H+ (max % remain)” value was 15%.
In the case of `O=C(Nc1cccc2c1C[C@H](O)C2)N[C@H]1CCOc2cc(OC(F)(F)F)ccc21` [Example 93, 1-[(2R)-2-hydroxy-2,3-dihydro-1H-inden-4-yl]-3-[(4S)-7-(trifluoromethoxy)-3,4-dihydro-2H-chromen-4-yl]urea], the IC50 on human TRPV1 [1] (setting [3]) was 41000 nM. On human TRPV1 [2], the “human TRPV1 H+ (max % remain)” value amounted to 57%.
Regarding `CC1(C)C[C@@H](NC(=O)Nc2cccc3c2C[C@@H](O)C3)c2ccc(Cl)c(F)c2O1` [Example 35, 1-[(4R)-7-chloro-8-fluoro-2,2-dimethyl-3,4-dihydro-2H-chromen-4-yl]-3-[(2S)-2-hydroxy-2,3-dihydro-1H-inden-4-yl]urea], the IC50 on human TRPV1 [1] (setting [3]) came to 11 nM. In addition, at human TRPV1 [2], the “human TRPV1 H+ (max % remain)” value came out at 14%.
On to `O=C(Nc1cccc2c1CC(O)C2)NC1CC2(CCCCC2)Oc2ccccc21` (centres unmarked) [Example 123, 1-(3,4-dihydrospiro[chromene-2,1′-cyclohexan]-4-yl)-3-(2-hydroxy-2,3-dihydro-1H-inden-4-yl)urea], for which the concentration for half-maximal inhibition (IC50) on human TRPV1 [1] (setting [3]) was determined as 140 nM. At human TRPV1 [2], the “human TRPV1 H+ (max % remain)” value came to 61%.
Turning to `C[C@@]1(C(F)F)C[C@@H](NC(=O)Nc2cccc3c2C[C@H](O)C3)c2ccccc2O1` [Example 126, 1-[(2S,4R)-2-(difluoromethyl)-2-methyl-3,4-dihydro-2H-chromen-4-yl]-3-[(2R)-2-hydroxy-2,3-dihydro-1H-inden-4-yl]urea], the IC50 at human TRPV1 [1] (setting [3]) worked out at 1400 nM. In addition, the “human TRPV1 H+ (max % remain)” value at human TRPV1 [2] came out at 88%.
Turning to `O=C(Nc1cccc2c1C[C@H](O)C2)N[C@@H]1COc2ccc(Cl)cc2C1` [Example 27, 1-[(3S)-6-chloro-3,4-dihydro-2H-chromen-3-yl]-3-[(2R)-2-hydroxy-2,3-dihydro-1H-inden-4-yl]urea], the IC50 at human TRPV1 [1] (setting [3]) is 97 nM. The “human TRPV1 H+ (max % remain)” value on human TRPV1 [2] is 11%.
As for `O=C(Nc1cccc2c1C[C@@H](O)C2)N[C@@H]1CC(CF)(CF)Oc2c(Cl)cccc21` [Example 75, 1-[(4R)-8-chloro-2,2-bis(fluoromethyl)-3,4-dihydro-2H-chromen-4-yl]-3-[(2S)-2-hydroxy-2,3-dihydro-1H-inden-4-yl]urea], the IC50 on human TRPV1 [1] (setting [3]) came out at 120 nM. For the same compound, the “human TRPV1 H+ (max % remain)” value at human TRPV1 [2] is 40%.
In the case of `O=C(Nc1cccc2c1C[C@H](O)C2)N[C@@H]1CCOc2cc(C(F)(F)F)ccc21` [Example 21, 1-[(2R)-2-hydroxy-2,3-dihydro-1H-inden-4-yl]-3-[(4R)-7-(trifluoromethyl)-3,4-dihydro-2H-chromen-4-yl]urea], the IC50 at human TRPV1 [1] (setting [3]) is 89 nM. Also, the “human TRPV1 H+ (max % remain)” value on human TRPV1 [2] is 74%.
As to `CC1(C)C[C@@H](NC(=O)Nc2cccc3c2C[C@H](O)C3)c2cccc(F)c2O1` [Example 46, 1-[(4R)-8-fluoro-2,2-dimethyl-3,4-dihydro-2H-chromen-4-yl]-3-[(2R)-2-hydroxy-2,3-dihydro-1H-inden-4-yl]urea], the IC50 on human TRPV1 [1] (setting [3]) was determined as 430 nM. Moreover, on human TRPV1 [2], the “human TRPV1 H+ (max % remain)” value is on record as 87%.
As for `O=C(Nc1ccc(F)c2c1C[C@H](O)C2)N[C@@H]1CC(CF)(CF)Oc2cc(Cl)ccc21` [Example 134, 1-[(4R)-7-chloro-2,2-bis(fluoromethyl)-3,4-dihydro-2H-chromen-4-yl]-3-[(2S)-7-fluoro-2-hydroxy-2,3-dihydro-1H-inden-4-yl]urea], on human TRPV1 [1], the IC50 amounted to 349 nM. Moreover, the “human TRPV1 H+ (max % remain)” value at human TRPV1 [2] is 3%.
For the compound `O=C(Nc1cccc2c1CC(O)C2)NC1CC(c2cccc(Cl)c2)Oc2ccccc21` (centres unmarked) [Example 110, 1-[2-(3-chlorophenyl)-3,4-dihydro-2H-chromen-4-yl]-3-(2-hydroxy-2,3-dihydro-1H-inden-4-yl)urea], at human TRPV1 [1] (setting [3]), the 50% inhibitory concentration (IC50) was determined as 240 nM. In addition, the “human TRPV1 H+ (max % remain)” value on human TRPV1 [2] came to 59%.
The corresponding values for `CCC1(CC)C[C@@H](NC(=O)Nc2cccc3c2C[C@H](O)C3)c2ccccc2O1` [Example 49, 1-[(4R)-2,2-diethyl-3,4-dihydro-2H-chromen-4-yl]-3-[(2R)-2-hydroxy-2,3-dihydro-1H-inden-4-yl]urea] are 22 nM and 75%.
For `CC1(C)C[C@@H](NC(=O)Nc2cccc3c2C[C@H](O)C3)c2ccc(C(F)(F)F)cc2O1` [Example 3, 1-[(4R)-2,2-dimethyl-7-(trifluoromethyl)-3,4-dihydro-2H-chromen-4-yl]-3-[(2R)-2-hydroxy-2,3-dihydro-1H-inden-4-yl]urea], in that order: 27 nM and 55%.
The corresponding values for `CC1(C)C[C@H](NC(=O)Nc2cccc3c2C[C@@H](O)C3)c2cc(F)ccc2O1` [Example 103, 1-[(4S)-6-fluoro-2,2-dimethyl-3,4-dihydro-2H-chromen-4-yl]-3-[(2S)-2-hydroxy-2,3-dihydro-1H-inden-4-yl]urea] are 28000 nM and 99%.
Turning to `O=C(Nc1cccc2c1CC(O)C2)NC1CC(c2ccccc2)Oc2ccccc21` (centres unmarked) [Example 118, 1-(2-hydroxy-2,3-dihydro-1H-inden-4-yl)-3-(2-phenyl-3,4-dihydro-2H-chromen-4-yl)urea], at human TRPV1 [1] (setting [3]), the IC50 was 61 nM. For the same compound, on human TRPV1 [2], the “human TRPV1 H+ (max % remain)” value stood at 67%.
As to `O=C(Nc1cccc2c1C[C@@H](O)C2)N[C@@H]1CC(CF)(CF)Oc2c1ccc(Cl)c2F` [Example 81, 1-[(4R)-7-chloro-8-fluoro-2,2-bis(fluoromethyl)-3,4-dihydro-2H-chromen-4-yl]-3-[(2S)-2-hydroxy-2,3-dihydro-1H-inden-4-yl]urea], the IC50 on human TRPV1 [1] (setting [3]) stood at 59 nM. In addition, on human TRPV1 [2], the “human TRPV1 H+ (max % remain)” value was determined as 11%.
The corresponding values for `CC1(C)C[C@@H](NC(=O)Nc2ccc(F)c3c2C[C@@H](O)C3)c2cccc(C(F)(F)F)c2O1` [Example 156, 1-[(4R)-2,2-dimethyl-8-(trifluoromethyl)-3,4-dihydro-2H-chromen-4-yl]-3-[(2R)-7-fluoro-2-hydroxy-2,3-dihydro-1H-inden-4-yl]urea] are 61 nM and 40%.
Regarding `O=C(Nc1cccc2c1C[C@@H](O)C2)N[C@H]1CC2(CCC2)Oc2ccc(F)cc21` [Example 102, 1-[(4S)-6-fluoro-3,4-dihydrospiro[chromene-2,1′-cyclobutan]-4-yl]-3-[(2S)-2-hydroxy-2,3-dihydro-1H-inden-4-yl]urea], the IC50 on human TRPV1 [1] (setting [3]) worked out at 2800 nM. Besides, the “human TRPV1 H+ (max % remain)” value at human TRPV1 [2] is 63%.
Regarding `CC1(C)C[C@@H](NC(=O)Nc2cccc3c2C[C@@H](O)C3)c2ccc(OC(F)(F)F)cc2O1` [Example 72, 1-[(4R)-2,2-dimethyl-7-(trifluoromethoxy)-3,4-dihydro-2H-chromen-4-yl]-3-[(2S)-2-hydroxy-2,3-dihydro-1H-inden-4-yl]urea], the IC50 at human TRPV1 [1] (setting [3]) stood at 27 nM. Further, the “human TRPV1 H+ (max % remain)” value on human TRPV1 [2] was found to be 0%.
